# Literature values, collected in patent publication US20260041141A1, “AEROSOL-GENERATING ARTICLE WITH AN ISOLATED AVERSIVE COMPONENT” (PHILIP MORRIS PRODUCTS S.A., priority 2022, published 2026).
# Where a name gives a salt, the structure may show the parent alone.
# Settings: reciprocal of the dilution that still has a bitter taste; quinine hydrochloride reference set at 200,000
row,Compound,Bitterness value
1,C[C@@]12C[C@@H](c3ccoc3)OC(=O)[C@@H]1CC[C@]1(C)[C@H]2[C@@H]2C=C[C@@]1(O)C(=O)O2 [Columbin],"60,000,000"
2,C=C[C@H]1C[N@@]2CC[C@H]1C[C@H]2[C@H](O)c1ccnc2ccc(OC)cc12 [Quinine hydrochloride],"200,000"
3,COC1=C[C@@H](C)[C@@H]2C[C@H]3OC(=O)C[C@H]4C(C)=C(OC)C(=O)[C@H]([C@@]2(C)C1=O)[C@@]34C [Quassin],"13,000,000"
4,Amarogentin,"58,000,000"
5,CC1=C[C@H]2[C@H]3[C@H](C(C)=C4[C@H]5OC(=O)[C@@H](C)[C@@H]5CC[C@](C)(O)[C@@H]43)[C@@]13[C@@H]2[C@@](C)(O)CC[C@H]1[C@H](C)C(=O)O[C@@H]13 [Absinthin],"3,000,000"
